According to ChEMBL document CHEMBL5042504 (J Med Chem, 2022):

Tests used:
[1] = biological target: T1, Protein deacetylase HDAC6 (Homo sapiens, UniProt Q9UBN7); experiment: Inhibition of human recombinant HDAC6 using Boc-Lys(acetyl)-AMC substrate incubated for 2 hrs by fluorescence based assay
T1 sequence (Q9UBN7 whole entry): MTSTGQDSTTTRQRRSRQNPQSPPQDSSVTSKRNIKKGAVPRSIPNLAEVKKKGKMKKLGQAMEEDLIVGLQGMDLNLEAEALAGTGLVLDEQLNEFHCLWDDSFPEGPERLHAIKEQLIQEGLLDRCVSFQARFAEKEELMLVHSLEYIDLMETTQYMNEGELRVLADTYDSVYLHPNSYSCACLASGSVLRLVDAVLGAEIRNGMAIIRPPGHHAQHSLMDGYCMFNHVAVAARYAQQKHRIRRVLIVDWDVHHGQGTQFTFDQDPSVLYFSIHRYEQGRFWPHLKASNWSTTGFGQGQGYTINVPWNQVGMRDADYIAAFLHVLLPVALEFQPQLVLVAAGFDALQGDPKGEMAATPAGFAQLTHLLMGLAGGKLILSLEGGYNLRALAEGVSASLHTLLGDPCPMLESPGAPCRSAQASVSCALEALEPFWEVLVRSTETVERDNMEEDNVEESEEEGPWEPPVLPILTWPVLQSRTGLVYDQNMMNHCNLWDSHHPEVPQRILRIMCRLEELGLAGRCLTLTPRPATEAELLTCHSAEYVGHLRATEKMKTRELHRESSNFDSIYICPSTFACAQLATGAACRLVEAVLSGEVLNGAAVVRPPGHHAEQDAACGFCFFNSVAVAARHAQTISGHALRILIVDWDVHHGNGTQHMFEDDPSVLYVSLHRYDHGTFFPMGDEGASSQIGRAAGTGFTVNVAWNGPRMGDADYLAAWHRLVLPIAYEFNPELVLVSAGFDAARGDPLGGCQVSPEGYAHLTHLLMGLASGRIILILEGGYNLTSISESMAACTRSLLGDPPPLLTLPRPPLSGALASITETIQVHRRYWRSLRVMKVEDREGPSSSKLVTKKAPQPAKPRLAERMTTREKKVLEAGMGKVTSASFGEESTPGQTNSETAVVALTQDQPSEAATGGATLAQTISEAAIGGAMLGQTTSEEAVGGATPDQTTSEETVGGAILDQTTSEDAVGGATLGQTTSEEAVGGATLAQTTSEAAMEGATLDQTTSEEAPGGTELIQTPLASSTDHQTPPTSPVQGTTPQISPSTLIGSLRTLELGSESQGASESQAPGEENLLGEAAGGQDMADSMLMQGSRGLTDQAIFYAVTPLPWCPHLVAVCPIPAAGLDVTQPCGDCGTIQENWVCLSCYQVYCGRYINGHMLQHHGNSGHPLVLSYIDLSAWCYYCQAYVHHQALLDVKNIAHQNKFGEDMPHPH

[2] = biological target: Histone deacetylase 3 (Homo sapiens, UniProt O15379); experiment: Inhibition of human recombinant HDAC3 using Boc-Lys(acetyl)-AMC substrate incubated for 2 hrs by fluorescence based assay
[3] = biological target: Histone deacetylase 2 (Homo sapiens, UniProt Q92769); experiment: Inhibition of human recombinant HDAC2 using Boc-Lys(acetyl)-AMC substrate incubated for 2 hrs by fluorescence based assay
[4] = test system: MV4-11; experiment: cells; settings: Homo sapiens, MV4-11, 48 h
Description: Antiproliferative activity against human MV4-11 AML cells assessed as cell viability measured after 48 hrs by multiplate reader method

[5] = biological target: Histone deacetylase 1 (Homo sapiens, UniProt Q13547); experiment: Inhibition of human recombinant HDAC1 using Boc-Lys(acetyl)-AMC substrate incubated for 2 hrs by fluorescence based assay
[6] = Oral bioavailability in CD-1 mouse at 20 mg/kg measured upto 24 hrs; assay type: ADME, organism-based; settings: in vivo
[7] = AUC (0 to infinity) in CD-1 mouse at 20 mg/kg, po measured upto 24 hrs; assay type: ADME, organism-based; design: route oral, dose 20 mg/kg, time <=24; settings: in vivo
[8] = Cmax in CD-1 mouse at 20 mg/kg, po measured upto 24 hrs; assay type: ADME, organism-based; design: route oral, dose 20 mg/kg, time <=24; settings: mouse, in vivo, 24 h

Chain of Histone deacetylase 1 (Q13547 whole entry): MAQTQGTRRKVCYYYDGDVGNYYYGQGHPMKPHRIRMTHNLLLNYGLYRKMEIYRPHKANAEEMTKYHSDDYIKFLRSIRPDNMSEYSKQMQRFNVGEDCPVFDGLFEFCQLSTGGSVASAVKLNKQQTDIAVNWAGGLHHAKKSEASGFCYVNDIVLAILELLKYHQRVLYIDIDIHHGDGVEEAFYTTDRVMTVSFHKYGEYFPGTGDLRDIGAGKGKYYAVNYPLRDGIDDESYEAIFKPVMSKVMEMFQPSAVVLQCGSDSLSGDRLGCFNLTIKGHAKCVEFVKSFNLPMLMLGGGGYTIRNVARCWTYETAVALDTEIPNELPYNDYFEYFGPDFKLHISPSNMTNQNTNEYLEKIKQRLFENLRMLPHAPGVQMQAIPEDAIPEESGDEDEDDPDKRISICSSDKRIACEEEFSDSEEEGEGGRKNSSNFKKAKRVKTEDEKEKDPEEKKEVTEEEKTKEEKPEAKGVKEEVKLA
Chain of Histone deacetylase 2 (Q92769 whole entry): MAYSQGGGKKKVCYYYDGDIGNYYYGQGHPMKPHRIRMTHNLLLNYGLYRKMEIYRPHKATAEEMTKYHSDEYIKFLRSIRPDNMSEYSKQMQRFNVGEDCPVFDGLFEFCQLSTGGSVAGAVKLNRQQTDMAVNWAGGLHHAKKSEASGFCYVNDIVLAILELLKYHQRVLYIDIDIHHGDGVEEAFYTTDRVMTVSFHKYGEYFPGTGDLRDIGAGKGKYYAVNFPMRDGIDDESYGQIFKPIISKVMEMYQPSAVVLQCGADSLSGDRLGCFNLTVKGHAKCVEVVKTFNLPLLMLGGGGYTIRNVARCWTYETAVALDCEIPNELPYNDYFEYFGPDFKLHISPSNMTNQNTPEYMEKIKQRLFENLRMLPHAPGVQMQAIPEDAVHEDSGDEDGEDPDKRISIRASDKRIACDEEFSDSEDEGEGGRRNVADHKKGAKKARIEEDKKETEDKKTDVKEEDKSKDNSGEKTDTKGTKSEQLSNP
Chain of Histone deacetylase 3 (O15379 whole entry): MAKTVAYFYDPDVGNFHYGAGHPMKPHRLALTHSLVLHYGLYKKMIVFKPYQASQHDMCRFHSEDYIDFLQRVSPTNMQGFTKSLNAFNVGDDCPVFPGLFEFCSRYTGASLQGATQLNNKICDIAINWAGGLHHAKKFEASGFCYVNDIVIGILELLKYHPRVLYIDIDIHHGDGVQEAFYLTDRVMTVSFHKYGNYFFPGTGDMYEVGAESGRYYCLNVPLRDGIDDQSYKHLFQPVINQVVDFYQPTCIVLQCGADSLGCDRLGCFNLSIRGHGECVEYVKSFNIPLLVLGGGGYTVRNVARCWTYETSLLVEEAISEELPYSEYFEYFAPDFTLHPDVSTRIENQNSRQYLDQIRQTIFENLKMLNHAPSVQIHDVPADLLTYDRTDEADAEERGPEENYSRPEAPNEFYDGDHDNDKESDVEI

IC50 [1] [nM] | IC50 [2] [nM] | IC50 [3] [nM] | IC50 [4] [nM] | IC50 [5] [nM] | F [6] [%] | AUC [7] [ng·h/mL] | Cmax [8] [ng/mL] | Structure (SMILES)
> 10000 |  |  |  |  |  |  |  | CCCNNC(=O)c1ccc(CNC(=O)c2cc3ccccc3s2)cc1
> 10000 | 0.89 | 30.5 | 43.6 | 7.98 |  |  |  | CCCNNC(=O)c1ccc(CNC(=O)c2ccc3ccccc3c2)cc1
> 10000 | 1.03 | 39.6 | 64.1 | 17.1 |  |  |  | CCCNNC(=O)c1ccc(CNC(=O)c2ccc3cnccc3c2)cc1
> 10000 | 1.55 | 30.1 | 74 | 20.8 |  |  |  | CCCNNC(=O)c1ccc(CNC(=O)c2ccc3ccncc3c2)cc1
> 10000 | 1.48 | 30.9 | 45.9 | 8.8 |  |  |  | CCCNNC(=O)c1ccc(CNC(=O)c2cc3ccccc3cn2)cc1
> 10000 | 0.66 | 46.1 | 37.7 | 13.8 |  |  |  | CCCNNC(=O)c1ccc(CNC(=O)c2cc3cc(Cl)ccc3[nH]2)cc1
> 10000 | 1.44 | 33.4 | 53.1 | 11.3 |  |  |  | CCCNNC(=O)c1ccc(CNC(=O)c2nc3ccccc3[nH]2)cc1
> 10000 | 0.85 | 35.8 | 53.8 | 11.7 |  |  |  | C=CCOc1ccc2oc(C(=O)NCc3ccc(C(=O)NNCCC)cc3)cc2c1
> 10000 | 1.79 | 59.6 | 71 | 13.7 |  |  |  | CCCNNC(=O)c1ccc(CNC(=O)c2cnc3ccccc3c2)cc1
> 10000 |  |  |  |  | 19.8 | 265 | 45.1 | CCCNNC(=O)/C=C/c1ccc(CNCCc2c(C)[nH]c3ccccc23)cc1
> 10000 | 1.31 | 186 | 66.5 | 58.3 |  |  |  | CCCNNC(=O)c1ccc(CNC(=O)c2cc3cc(Br)ccc3[nH]2)cc1
